Experimental data reported in ChEMBL document CHEMBL1134903, “Synthesis and SAR of azalide 3,6-ketal aromatic derivatives as potent Gram-positive and Gram-negative antibacterial agents” (Bioorg Med Chem Lett, 2002).
Converted amounts (≈) assume the structure as drawn.

Columns and labels:
Format in all cases: functional
Escherichia coli = assay: Minimum inhibitory concentration against Escherichia coli
Staphylococcus aureus [1] = assay: Colony forming units of Staphylococcus aureus intramammary infection (IMI) model was determined at a dose of 15 mg/kg
Staphylococcus aureus [2] = assay: Effective dose required to inhibit Staphylococcus aureus intraperitoneal (IP) infection model
Pasteurella multocida = assay: Minimum inhibitory concentration against Pasteurella multocida
Staphylococcus aureus [3] = assay: Minimum inhibitory concentration against Staphylococcus aureus

Structure (SMILES)	MIC (Escherichia coli)	Log CFU (Staphylococcus aureus [1])	ED50 (Staphylococcus aureus [2])	MIC (Pasteurella multocida)	MIC (Staphylococcus aureus [3])
CC[C@H]1OC(=O)[C@H](C)[C@H]2OC3(CCN(Cc4ccccn4)CC3)O[C@](C)(C[C@@H](C)CN[C@H](C)[C@@H](O)[C@]1(C)O)[C@H](O[C@@H]1O[C@H](C)C[C@H](N(C)C)[C@H]1O)[C@H]2C	0.2 µg/mL (≈ 0.267 µM)	1.1	< 5 mg/kg	0.03 µg/mL (≈ 0.0401 µM)	0.6 µg/mL (≈ 0.801 µM)
CC[C@H]1OC(=O)[C@H](C)[C@H]2OC3(CCN(Cc4ccccn4)CC3)O[C@](C)(C[C@@H](C)CN(C)[C@H](C)[C@@H](O)[C@]1(C)O)[C@H](O[C@@H]1O[C@H](C)C[C@H](N(C)C)[C@H]1O)[C@H]2C	0.2 µg/mL (≈ 0.262 µM)	1.9	17 mg/kg	0.03 µg/mL (≈ 0.0393 µM)	0.78 µg/mL (≈ 1.02 µM)
CC[C@H]1OC(=O)[C@H](C)[C@H]2OC3(CCN(C(=O)c4ccoc4)CC3)O[C@](C)(C[C@@H](C)CN[C@H](C)[C@@H](O)[C@]1(C)O)[C@H](O[C@@H]1O[C@H](C)C[C@H](N(C)C)[C@H]1O)[C@H]2C	0.78 µg/mL (≈ 1.04 µM)	2.6	11 mg/kg	0.05 µg/mL (≈ 0.0665 µM)	0.78 µg/mL (≈ 1.04 µM)
CC[C@H]1OC(=O)[C@H](C)[C@H]2OC3(CCN(Cc4cccnc4)CC3)O[C@](C)(C[C@@H](C)CN[C@H](C)[C@@H](O)[C@]1(C)O)[C@H](O[C@@H]1O[C@H](C)C[C@H](N(C)C)[C@H]1O)[C@H]2C	0.78 µg/mL (≈ 1.04 µM)	1.3	< 5 mg/kg	0.03 µg/mL (≈ 0.0401 µM)	0.39 µg/mL (≈ 0.521 µM)
CC[C@H]1OC(=O)[C@H](C)[C@H]2OC3(CCN(C(=O)c4ccc5ccccc5n4)CC3)O[C@](C)(C[C@@H](C)CN[C@H](C)[C@@H](O)[C@]1(C)O)[C@H](O[C@@H]1O[C@H](C)C[C@H](N(C)C)[C@H]1O)[C@H]2C	1.56 µg/mL (≈ 1.92 µM)	1.9	14 mg/kg	0.05 µg/mL (≈ 0.0615 µM)	0.2 µg/mL (≈ 0.246 µM)
CC[C@H]1OC(=O)[C@H](C)[C@H]2OC3(CCN(C(=O)c4cccnc4)CC3)O[C@](C)(C[C@@H](C)CN(C)[C@H](C)[C@@H](O)[C@]1(C)O)[C@H](O[C@@H]1O[C@H](C)C[C@H](N(C)C)[C@H]1O)[C@H]2C	3.13 µg/mL (≈ 4.03 µM)	2.6	10 mg/kg	0.1 µg/mL (≈ 0.129 µM)	1.56 µg/mL (≈ 2.01 µM)
CC[C@H]1OC(=O)[C@H](C)[C@H]2OC3(CCN(C(=O)c4ccccc4)CC3)O[C@](C)(C[C@@H](C)CN[C@H](C)[C@@H](O)[C@]1(C)O)[C@H](O[C@@H]1O[C@H](C)C[C@H](N(C)C)[C@H]1O)[C@H]2C	1.56 µg/mL (≈ 2.05 µM)	2.9	20 mg/kg	0.1 µg/mL (≈ 0.131 µM)	0.78 µg/mL (≈ 1.02 µM)
CC[C@H]1OC(=O)[C@H](C)[C@H]2OC3(CCN(CCc4ccc(Cl)cc4)CC3)O[C@](C)(C[C@@H](C)CN(C)[C@H](C)[C@@H](O)[C@]1(C)O)[C@H](O[C@@H]1O[C@H](C)C[C@H](N(C)C)[C@H]1O)[C@H]2C	0.2 µg/mL (≈ 0.247 µM)	9.7	> 20 mg/kg	0.03 µg/mL (≈ 0.037 µM)	0.39 µg/mL (≈ 0.481 µM)
CC[C@H]1OC(=O)[C@H](C)[C@H]2OC3(CCN(CCc4ccc5ccccc5n4)CC3)O[C@](C)(C[C@@H](C)CN[C@H](C)[C@@H](O)[C@]1(C)O)[C@H](O[C@@H]1O[C@H](C)C[C@H](N(C)C)[C@H]1O)[C@H]2C	0.78 µg/mL (≈ 0.959 µM)	5.2	22 mg/kg	0.03 µg/mL (≈ 0.0369 µM)	0.2 µg/mL (≈ 0.246 µM)
CC[C@H]1OC(=O)[C@H](C)[C@H]2OC3(CCN(C(=O)c4cnc5ccccc5c4)CC3)O[C@](C)(C[C@@H](C)CN[C@H](C)[C@@H](O)[C@]1(C)O)[C@H](O[C@@H]1O[C@H](C)C[C@H](N(C)C)[C@H]1O)[C@H]2C	3.13 µg/mL (≈ 3.85 µM)	3.3	13 mg/kg	0.1 µg/mL (≈ 0.123 µM)	0.39 µg/mL (≈ 0.48 µM)
CC[C@H]1OC(=O)[C@H](C)[C@H]2OC3(CCN(C(=O)c4cccnc4)CC3)O[C@](C)(C[C@@H](C)CN[C@H](C)[C@@H](O)[C@]1(C)O)[C@H](O[C@@H]1O[C@H](C)C[C@H](N(C)C)[C@H]1O)[C@H]2C	3.13 µg/mL (≈ 4.1 µM)	3.2	6.4 mg/kg	0.1 µg/mL (≈ 0.131 µM)	1.56 µg/mL (≈ 2.04 µM)
CC[C@H]1OC(=O)[C@H](C)[C@H]2OC3(CCN(C(=O)c4ccc5ccccc5n4)CC3)O[C@](C)(C[C@@H](C)CN(C)[C@H](C)[C@@H](O)[C@]1(C)O)[C@H](O[C@@H]1O[C@H](C)C[C@H](N(C)C)[C@H]1O)[C@H]2C	6.25 µg/mL (≈ 7.56 µM)	9.7	> 20 mg/kg	0.1 µg/mL (≈ 0.121 µM)	0.39 µg/mL (≈ 0.472 µM)
CC[C@H]1OC(=O)[C@H](C)[C@H]2OC3(CCN(C(=O)c4cnccn4)CC3)O[C@](C)(C[C@@H](C)CN[C@H](C)[C@@H](O)[C@]1(C)O)[C@H](O[C@@H]1O[C@H](C)C[C@H](N(C)C)[C@H]1O)[C@H]2C	1.56 µg/mL (≈ 2.04 µM)	1.3	6.1 mg/kg	0.1 µg/mL (≈ 0.131 µM)	1.56 µg/mL (≈ 2.04 µM)
CC[C@H]1OC(=O)[C@H](C)[C@H]2OC3(CCN(C(=O)c4ccc[nH]4)CC3)O[C@](C)(C[C@@H](C)CN[C@H](C)[C@@H](O)[C@]1(C)O)[C@H](O[C@@H]1O[C@H](C)C[C@H](N(C)C)[C@H]1O)[C@H]2C	0.78 µg/mL (≈ 1.04 µM)	4.7	19 mg/kg	0.05 µg/mL (≈ 0.0666 µM)	0.78 µg/mL (≈ 1.04 µM)
CC[C@H]1OC(=O)[C@H](C)[C@H]2OC3(CCN(C(=O)c4cccn4C)CC3)O[C@](C)(C[C@@H](C)CN[C@H](C)[C@@H](O)[C@]1(C)O)[C@H](O[C@@H]1O[C@H](C)C[C@H](N(C)C)[C@H]1O)[C@H]2C	1.56 µg/mL (≈ 2.04 µM)	2.4	19 mg/kg	0.1 µg/mL (≈ 0.131 µM)	0.78 µg/mL (≈ 1.02 µM)
CC[C@H]1OC(=O)[C@H](C)[C@H]2OC3(CCN(C(=O)c4cccc(OC)c4)CC3)O[C@](C)(C[C@@H](C)CN[C@H](C)[C@@H](O)[C@]1(C)O)[C@H](O[C@@H]1O[C@H](C)C[C@H](N(C)C)[C@H]1O)[C@H]2C	3.13 µg/mL (≈ 3.95 µM)	5.6	20 mg/kg	0.1 µg/mL (≈ 0.126 µM)	0.78 µg/mL (≈ 0.985 µM)
CC[C@H]1OC(=O)[C@H](C)[C@H]2OC3(CCN(C(=O)c4ccco4)CC3)O[C@](C)(C[C@@H](C)CN[C@H](C)[C@@H](O)[C@]1(C)O)[C@H](O[C@@H]1O[C@H](C)C[C@H](N(C)C)[C@H]1O)[C@H]2C	1.56 µg/mL (≈ 2.07 µM)	0.4	12 mg/kg	0.05 µg/mL (≈ 0.0665 µM)	0.78 µg/mL (≈ 1.04 µM)
CC[C@H]1OC(=O)[C@H](C)[C@H]2OC3(CCN(C(=O)c4ccnc5ccccc45)CC3)O[C@](C)(C[C@@H](C)CN(C)[C@H](C)[C@@H](O)[C@]1(C)O)[C@H](O[C@@H]1O[C@H](C)C[C@H](N(C)C)[C@H]1O)[C@H]2C	6.25 µg/mL (≈ 7.56 µM)	2.5	20 mg/kg	0.1 µg/mL (≈ 0.121 µM)	0.39 µg/mL (≈ 0.472 µM)
CC[C@H]1OC(=O)[C@H](C)[C@@H](O[C@H]2C[C@@](C)(OC)[C@@H](O)[C@H](C)O2)[C@H](C)[C@@H](O[C@@H]2O[C@H](C)C[C@H](N(C)C)[C@H]2O)[C@](C)(O)C[C@@H](C)CN(C)[C@H](C)[C@@H](O)[C@]1(C)O [AZITHROMYCIN]	1.56 µg/mL (≈ 2.08 µM)	2.8	4.1 mg/kg	0.1 µg/mL (≈ 0.134 µM)	0.2 µg/mL (≈ 0.267 µM)
CC[C@H]1OC(=O)[C@H](C)[C@H]2OC3(CCN(C(=O)c4ccccn4)CC3)O[C@](C)(C[C@@H](C)CN(C)[C@H](C)[C@@H](O)[C@]1(C)O)[C@H](O[C@@H]1O[C@H](C)C[C@H](N(C)C)[C@H]1O)[C@H]2C	1.56 µg/mL (≈ 2.01 µM)	2.9	12 mg/kg	0.1 µg/mL (≈ 0.129 µM)	1.56 µg/mL (≈ 2.01 µM)
